Reference: ChEMBL document CHEMBL3745684, “Synthesis of a norcantharidin-tethered guanosine: Protein phosphatase-1 inhibitors that change alternative splicing” (Bioorg Med Chem Lett, 2016)
Activity calls are given as the source filed them. No cut-off for these calls is given here.

Columns and labels:
Type in all cases: cell-based
HEK293 [1] = assay: Inhibition of protein phosphatase-1 in human HEK293 cells assessed as increase in exon 7 inclusion in the survival of motor neuron 2 gene at 10 to 100 uM after 14 to 16 hrs by RT-PCR analysis
HEK293 [2] = assay: Inhibition of protein phosphatase-1 in human HEK293 cells assessed as increase in exon 7 inclusion in the survival of motor neuron 2 gene after 14 to 16 hrs by RT-PCR analysis
HEK293 [3] = assay: Inhibition of protein phosphatase-1 in human HEK293 cells assessed as exon 7 inclusion in the survival of motor neuron 2 gene at 1 to 100 uM after 14 to 16 hrs by RT-PCR analysis

| Structure (SMILES) | Activity (HEK293 [1]) [%] | Activity (HEK293 [2]) | inhibition (HEK293 [3]) |
| --- | --- | --- | --- |
| CO[C@@H]1[C@H](OP(=O)(O)OCCc2ccc(CCN(C)C(=O)[C@H]3[C@@H](C(=O)O)[C@@H]4CC[C@H]3O4)cc2)[C@@H](CO)O[C@H]1n1cnc2c(=O)[nH]c(N)nc21 (mixture of isomers) | 25 | Dose-dependent effect | – |
| CNCCc1ccc(CCO)cc1 | – | – | inactive |
